Read-outs that look alike come from different tables or passages of the source. Starred links: 1 amine or outer side, 2 acyl side, 3 side chain; linkers in the order of their positions; H or OH if unused. Non-standard residues stand in square brackets, D forms with d. Residues, ends and D or L forms follow the SMILES beside them. *: point of attachment. NH(1S,2S-2-CONH2-cPent) = NC(=O)[C@H]1CCC[C@@H]1N*; X12 = O=C([C@H]1CCC[C@@H]1N[*:1])[*:2]; X13 = O=C([C@H]1CNC[C@@H]1N[*:1])[*:2]; ACPC(1S,2S) = N[C@H]1CCC[C@@H]1C(=O)*; Aib = CC(C)(N)C(=O)O
Columns and labels:
WT human PTHR-1 = target: T1, WT human PTHR-1 (Homo sapiens, UniProt Q03431); assay: cAMP GloSensor dose-response in GP-2.3 cells expressing human PTHR-1; type: cell-based; conditions: for cAMP (hPTHR-1) Max: Table 1, luminescence counts per second relative to PTH(1-34); for cAMP (hPTHR-1) Max / Max: 12-16 minutes after ligand addition; for Max: Table 6, GP-2.3 cells, mean ± SEM
T1 construct: bioactivity of the resulting compound in full-length hPTHR-1 and a truncated version; expressed in transfected cells
T1 sequence (Q03431 27-593): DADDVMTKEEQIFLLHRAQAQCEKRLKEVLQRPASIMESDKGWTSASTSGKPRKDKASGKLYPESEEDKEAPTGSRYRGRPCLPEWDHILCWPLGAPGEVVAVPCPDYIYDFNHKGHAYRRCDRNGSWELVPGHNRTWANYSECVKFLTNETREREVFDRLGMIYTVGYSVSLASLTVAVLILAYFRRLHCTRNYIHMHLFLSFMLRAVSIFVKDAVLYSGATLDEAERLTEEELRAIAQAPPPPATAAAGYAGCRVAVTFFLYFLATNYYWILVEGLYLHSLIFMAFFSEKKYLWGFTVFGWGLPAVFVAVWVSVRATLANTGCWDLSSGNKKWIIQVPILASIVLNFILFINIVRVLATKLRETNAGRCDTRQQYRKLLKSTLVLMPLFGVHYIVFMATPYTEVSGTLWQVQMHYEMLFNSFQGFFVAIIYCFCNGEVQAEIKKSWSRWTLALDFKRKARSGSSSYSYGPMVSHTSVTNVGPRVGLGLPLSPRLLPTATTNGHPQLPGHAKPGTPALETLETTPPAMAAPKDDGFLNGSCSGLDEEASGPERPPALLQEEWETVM
Method: FIGS. 8A, 8B, and 8C constitute a series of graphs depicting cAMP responses in GP-2.3 cells expressing wild-type human parathyroid hormone receptor 1 (PTHR-1-WT). […] Data are means (±SEM) of n>4 experiments, each performed in duplicate.
(§1) For cAMP dose-response assays, monolayers of confluent HEK 293 cells were pre-incubated with buffer containing d-luciferin (0.5 mM) in 96 well plates at room temperature until a stable baseline level of luminescence was established (30 min). Varying concentrations of agonist were then added, and the time course of luminescence response was recorded using a Perkin Elmer plate reader following α/β-peptide addition.

WT rat PTHR-1 = target: T2, WT rat PTHR-1 (Rattus norvegicus, UniProt P25961); assay: cAMP GloSensor dose-response in GR-35 cells expressing rat PTHR-1; type: cell-based; conditions: Table 7; GR-35 cells, 12-16 minutes after ligand addition; mean ± SEM
T2 construct: expressed in transfected cells
T2 sequence (P25961 27-591): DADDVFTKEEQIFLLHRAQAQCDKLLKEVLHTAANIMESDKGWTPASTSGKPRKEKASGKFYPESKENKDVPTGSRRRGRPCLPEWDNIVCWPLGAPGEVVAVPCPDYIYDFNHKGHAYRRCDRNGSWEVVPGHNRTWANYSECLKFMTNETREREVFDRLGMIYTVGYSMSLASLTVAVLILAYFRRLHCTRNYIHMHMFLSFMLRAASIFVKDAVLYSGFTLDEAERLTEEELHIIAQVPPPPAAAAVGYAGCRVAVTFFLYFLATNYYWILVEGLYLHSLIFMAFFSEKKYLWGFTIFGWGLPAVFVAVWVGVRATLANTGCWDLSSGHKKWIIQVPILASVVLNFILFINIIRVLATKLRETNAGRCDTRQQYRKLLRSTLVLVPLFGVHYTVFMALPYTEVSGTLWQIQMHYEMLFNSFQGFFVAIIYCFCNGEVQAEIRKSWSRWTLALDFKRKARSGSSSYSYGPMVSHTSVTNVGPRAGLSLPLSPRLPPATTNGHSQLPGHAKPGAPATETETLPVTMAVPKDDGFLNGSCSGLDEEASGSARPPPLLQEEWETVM
Method: FIGS. 9A, 9B, and 9C constitute a series of graphs depicting cAMP responses in GR-35 cells expressing rat PTHR-1-WT. […] Data are means (±SEM) of n>4 experiments, each performed in duplicate.
as §1

Row | SMILES | EC50 (WT human PTHR-1; read-out: cAMP EC50) | Max (WT rat PTHR-1) | cAMP (hPTHR-1) Max (WT human PTHR-1) | Max (WT human PTHR-1) | further results
1 | CC[C@H](C)[C@H](NC(=O)[C@H](CO)NC(=O)[C@H](CCCCN)NC(=O)CNC(=O)[C@H](CCCCN)NC(=O)[C@H](CC(=O)O)NC(=O)[C@H](Cc1c[nH]cn1)NC(=O)[C@H](CC(C)C)NC(=O)[C@H]1CCC[C@@H]1NC(=O)[C@H](CCC(N)=O)NC(=O)[C@H]1CCC[C@@H]1NC(=O)[C@H](CCC(=O)O)NC(=O)[C@H](CO)NC(=O)[C@@H](NC(=O)[C@H]1CCC[C@@H]1N)C(C)C)C(=O)N[C@@H](CCC(N)=O)C(=O)N[C@@H](CC(=O)O)C(=O)N[C@@H](CC(C)C)C(=O)N[C@@H](CCCNC(=N)N)C(=O)N[C@@H](CCCNC(=N)N)C(=O)N[C@@H](CCCNC(=N)N)C(=O)N[C@@H](CCC(=O)O)C(=O)N[C@@H](CC(C)C)C(=O)N[C@@H](CC(C)C)C(=O)N[C@@H](CCC(=O)O)C(=O)N[C@@H](CCCCN)C(=O)N[C@@H](CC(C)C)C(=O)N[C@@H](CC(C)C)C(=O)NC(C)(C)C(=O)N[C@@H](CCCCN)C(=O)N[C@@H](CC(C)C)C(=O)N[C@@H](Cc1c[nH]cn1)C(=O)N[C@H](C(=O)N[C@@H](C)C(N)=O)[C@@H](C)O [BA058 ACPC(1,5,7), XVSEXQXLHDKGKSIQDLRRRELLEKLLUKLHTA-NH2] ({ACPC(1S,2S)}-VSE[X12]Q[X12]LHDKGKSIQDLRRRELLEKLL[Aib]KLHTA-NH2; N-terminus assumed) | 0.26 nM |  |  |  | 
2 | CC[C@H](C)[C@H](NC(=O)[C@H](CCC(=O)O)NC(=O)[C@H](CO)NC(=O)[C@@H](NC(=O)[C@@H](N)CO)C(C)C)C(=O)N[C@@H](CCC(N)=O)C(=O)N[C@@H](CC(C)C)C(=O)N[C@@H](CCSC)C(=O)N[C@@H](Cc1c[nH]cn1)C(=O)N[C@@H](CC(N)=O)C(=O)N[C@@H](CC(C)C)C(=O)NCC(=O)N[C@@H](CCCCN)C(=O)N[C@@H](Cc1c[nH]cn1)C(=O)N[C@@H](CC(C)C)C(=O)N[C@@H](CC(N)=O)C(=O)N[C@@H](CO)C(=O)N[C@@H](CCSC)C(=O)N[C@@H](CCC(=O)O)C(=O)N[C@@H](CCCNC(=N)N)C(=O)N[C@H](C(=O)N[C@@H](CCC(=O)O)C(=O)N[C@H](CC(=O)N[C@@H](CC(C)C)C(=O)N[C@@H](CCCNC(=N)N)C(=O)N[C@@H](CCCCN)C(=O)N[C@@H](CCCCN)CC(=O)N[C@@H](CC(C)C)C(=O)N[C@@H](CCC(N)=O)C(=O)N[C@@H](CC(=O)O)C(=O)N[C@H](CC(=O)N[C@@H](Cc1c[nH]cn1)C(=O)N[C@@H](CC(N)=O)C(=O)N[C@@H](Cc1ccccc1)C(N)=O)C(C)C)Cc1c[nH]c2ccccc12)C(C)C [A3] |  | 74 ± 101 luminescence counts per second × 10−3 | 1.07 | 232 ± 15 luminescence counts per second × 10^−3 | agonist activity at hPTHR-1 (cAMP response), in words (WT human PTHR-1; maximum cAMP response compared with PTH(1-34)): full agonists of hPTHR-1
3 | CC[C@H](C)[C@H](NC(=O)[C@H]1CCC[C@@H]1NC(=O)[C@H](CCCCN)NC(=O)CNC(=O)[C@H](CCCCN)NC(=O)[C@H](CC(=O)O)NC(=O)[C@H](Cc1cnc[nH]1)NC(=O)[C@H](CC(C)C)NC(=O)[C@H]1CCC[C@@H]1NC(=O)[C@H](CCC(N)=O)NC(=O)[C@H]1CCC[C@@H]1NC(=O)[C@H](CCC(=O)O)NC(=O)[C@H](CO)NC(=O)[C@@H](NC(=O)[C@H]1CCC[C@@H]1N)C(C)C)C(=O)N[C@@H](CCC(N)=O)C(=O)N[C@@H](CC(=O)O)C(=O)N[C@H]1CCC[C@@H]1C(=O)N[C@@H](CCCNC(=N)N)C(=O)N[C@@H](CCCNC(=N)N)C(=O)N[C@@H](CCCNC(=N)N)C(=O)N[C@H]1CNC[C@@H]1C(=O)N[C@@H](CC(C)C)C(=O)N[C@@H](CC(C)C)C(=O)N[C@@H](CCC(=O)O)C(=O)N[C@H]1CNC[C@@H]1C(=O)N[C@@H](CC(C)C)C(=O)N[C@@H](CC(C)C)C(=O)NC(C)(C)C(=O)N[C@H]1CCC[C@@H]1C(=O)N[C@@H](CC(C)C)C(=O)N[C@@H](Cc1cnc[nH]1)C(=O)N[C@H](C(=O)N[C@H]1CCC[C@@H]1C(N)=O)[C@@H](C)O [CycD6 BA058 ACPC(1,5,7), XVSEXQXLHDKGKXIQDXRRRZLLEZLLUXLHTX-NH2] ({ACPC(1S,2S)}-VSE[X12]Q[X12]LHDKGK[X12]IQD[X12]RRR[X13]LLE[X13]LL[Aib][X12]LHT-{NH(1S,2S-2-CONH2-cPent)}) | 0.65 nM |  |  |  | 
4 | CC[C@H](C)[C@H](NC(=O)[C@H](CCC(=O)O)NC(=O)[C@H](CO)NC(=O)[C@@H](NC(=O)[C@@H](N)CO)C(C)C)C(=O)N[C@@H](CCC(N)=O)C(=O)N[C@@H](CC(C)C)C(=O)N[C@@H](CCSC)C(=O)N[C@@H](Cc1c[nH]cn1)C(=O)N[C@@H](CC(N)=O)C(=O)N[C@@H](CC(C)C)C(=O)NCC(=O)N[C@@H](CCCCN)C(=O)N[C@@H](Cc1c[nH]cn1)C(=O)N[C@H](CC(=O)N[C@@H](CC(N)=O)C(=O)N[C@@H](CO)C(=O)N[C@@H](CCSC)C(=O)N[C@@H](CCC(=O)O)CC(=O)N[C@@H](CCCNC(=N)N)C(=O)N[C@H](C(=O)N[C@@H](CCC(=O)O)C(=O)N[C@H](CC(=O)N[C@@H](CC(C)C)C(=O)N[C@@H](CCCNC(=N)N)C(=O)N[C@@H](CCCCN)C(=O)N[C@@H](CCCCN)CC(=O)N[C@@H](CC(C)C)C(=O)N[C@@H](CCC(N)=O)C(=O)N[C@@H](CC(=O)O)C(=O)N[C@H](CC(=O)N[C@@H](Cc1c[nH]cn1)C(=O)N[C@@H](CC(N)=O)C(=O)N[C@@H](Cc1ccccc1)C(N)=O)C(C)C)Cc1c[nH]c2ccccc12)C(C)C)CC(C)C [A5] |  | 54 ± 26 luminescence counts per second × 10−3 | 1.12 | 244 ± 32 luminescence counts per second × 10^−3 | EC50 (WT human PTHR-1): 1.66 nM
5 | CC[C@H](C)[C@H](NC(=O)[C@H]1CCC[C@@H]1NC(=O)[C@H](CO)NC(=O)[C@@H](NC(=O)[C@@H](N)CO)C(C)C)C(=O)N[C@@H](CCC(N)=O)C(=O)N[C@@H](CC(C)C)C(=O)N[C@@H](CCSC)C(=O)N[C@@H](Cc1c[nH]cn1)C(=O)N[C@@H](CC(N)=O)C(=O)N[C@@H](CC(C)C)C(=O)NCC(=O)N[C@@H](CCCCN)C(=O)N[C@@H](Cc1c[nH]cn1)C(=O)N[C@@H](CC(C)C)C(=O)N[C@@H](CC(N)=O)C(=O)N[C@@H](CO)C(=O)N[C@@H](CCSC)C(=O)N[C@@H](CCC(=O)O)C(=O)N[C@@H](CCCNC(=N)N)C(=O)N[C@H](C(=O)N[C@@H](CCC(=O)O)C(=O)N[C@@H](Cc1c[nH]c2ccccc12)C(=O)N[C@@H](CC(C)C)C(=O)N[C@@H](CCCNC(=N)N)C(=O)N[C@@H](CCCCN)C(=O)N[C@@H](CCCCN)C(=O)N[C@@H](CC(C)C)C(=O)N[C@@H](CCC(N)=O)C(=O)N[C@@H](CC(=O)O)C(=O)N[C@H](C(=O)N[C@@H](Cc1c[nH]cn1)C(=O)N[C@@H](CC(N)=O)C(=O)N[C@@H](Cc1ccccc1)C(N)=O)C(C)C)C(C)C [ACPC(4)] (H-SVS[X12]IQLMHNLGKHLNSMERVEWLRKKLQDVHNF-NH2; N-terminus assumed) |  |  |  |  | hPTHR1 EC50, nM (Means ± SEM) (WT human PTHR-1; Table 8, cAMP-inducing potency, N-terminal modifications): No activity

Reference: patent US10501518B2 (priority 2013, dated 2019)
